# Experimental data: US20070117770A1, “Human ribosomal DNA (rDNA) and ribosomal RNA (rRNA) nucleic acids and uses thereof” (Cylene Pharmaceuticals, Inc., priority 2005, published 2007)
# Tests used:
# Test in all cases: Protein kinase inhibition assay
# Type in all cases: biochemical
# ALK4(h) = ALK4(h) (Homo sapiens, UniProt P36896); conditions: read-out: percent residual activity of ALK4(h)
# Protocol: (§1) Certain compounds were tested for activity in protein kinase inhibition assays. All substrates were dissolved and diluted to working stocks in de-ionized water, apart from histone H1 (10× working stock in 20 mM MOPS pH 7.0), PDKtide (10× working stock in 50 mM Tris pH 7.0) ATF2 (which is typically stored at a 20× working stock in 50 mM Tris pH 7.5, 150 mM NaCl, 0.1 mM EGTA, 0.03% Brij-35, 50% glycerol, 1 mM benzamidine, 0.2 mM PMSF and 0.1% R-mercaptoethanol), KKLNRTLSFAEPG (SEQ ID NO:203) and RRRLSFAEPG (SEQ ID NO:204) (50 mM HEPES pH 7.4) and GGEEEEYFELVKKKK (SEQ ID NO:205) (20 mM MOPS pH 7.0). All kinases were pre-diluted to a 10× working concentration prior to addition into the assay. The composition of the dilution buffer for each kinase is detailed below.
# (§2) In a final reaction volume of 25 μl, ALK4 (h) (5-10 mU) is incubated with 8 mM MOPS pH 7.0, 0.2 mM EDTA, 2 mg/ml casein, 10 mM MgAcetate and [gamma-33P-ATP] (specific activity approx. 500 cpm/pmol, concentration as required). The reaction is initiated by the addition of the MgATP mix. After incubation for 40 minutes at room temperature, the reaction is stopped by the addition of 5 μl of a 3% phosphoric acid solution. 10 μl of the reaction is then spotted onto a P30 filtermat and washed three times for 5 minutes in 75 mM phosphoric acid and once in methanol prior to drying and scintillation counting.
# Fer(h) = Fer(h) (Homo sapiens, UniProt P16591); conditions: read-out: percent residual activity of Fer(h)
# Fer(h), sequence (P16591 whole entry): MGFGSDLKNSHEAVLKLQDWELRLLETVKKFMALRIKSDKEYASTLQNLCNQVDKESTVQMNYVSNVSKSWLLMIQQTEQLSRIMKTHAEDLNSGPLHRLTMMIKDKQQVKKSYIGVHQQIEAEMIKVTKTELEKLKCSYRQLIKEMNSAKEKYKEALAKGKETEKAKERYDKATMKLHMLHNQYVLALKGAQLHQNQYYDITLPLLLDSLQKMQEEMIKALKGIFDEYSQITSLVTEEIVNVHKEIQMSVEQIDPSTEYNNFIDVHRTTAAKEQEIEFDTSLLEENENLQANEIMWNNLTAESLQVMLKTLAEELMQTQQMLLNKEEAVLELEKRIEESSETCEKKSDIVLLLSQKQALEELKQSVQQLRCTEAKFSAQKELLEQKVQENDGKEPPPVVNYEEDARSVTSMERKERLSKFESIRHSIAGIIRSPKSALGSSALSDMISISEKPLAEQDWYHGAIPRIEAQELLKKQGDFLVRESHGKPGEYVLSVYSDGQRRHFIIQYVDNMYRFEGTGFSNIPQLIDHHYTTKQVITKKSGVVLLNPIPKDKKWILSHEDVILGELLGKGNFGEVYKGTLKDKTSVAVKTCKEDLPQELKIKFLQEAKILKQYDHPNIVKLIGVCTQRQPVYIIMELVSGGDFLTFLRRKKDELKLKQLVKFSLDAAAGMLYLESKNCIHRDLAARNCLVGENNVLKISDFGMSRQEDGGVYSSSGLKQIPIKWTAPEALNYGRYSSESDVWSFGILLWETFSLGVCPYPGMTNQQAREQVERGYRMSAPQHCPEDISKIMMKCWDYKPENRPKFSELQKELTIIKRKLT
# Protocol: as §1
# (§3) In a final reaction volume of 25 μl, Fer (h) (5-10 mU) is incubated with 8 mM MOPS pH 7.0, 0.2 mM EDTA, 1 mM MnCl2, 250 μM KKKSPGEYVNIEFG (SEQ ID NO:207), 10 mM MgAcetate and [gamma-33P-ATP] (specific activity approx. 500 cpm/pmol, concentration as required). The reaction is initiated by the addition of the MgATP mix. After incubation for 40 minutes at room temperature, the reaction is stopped by the addition of 5 μl of a 3% phosphoric acid solution. […]
# MAPK1(h) = MAPK1(h) (Homo sapiens, UniProt P27361); conditions: read-out: percent residual activity of MAPK1(h)
# MAPK1(h), sequence (P27361 whole entry): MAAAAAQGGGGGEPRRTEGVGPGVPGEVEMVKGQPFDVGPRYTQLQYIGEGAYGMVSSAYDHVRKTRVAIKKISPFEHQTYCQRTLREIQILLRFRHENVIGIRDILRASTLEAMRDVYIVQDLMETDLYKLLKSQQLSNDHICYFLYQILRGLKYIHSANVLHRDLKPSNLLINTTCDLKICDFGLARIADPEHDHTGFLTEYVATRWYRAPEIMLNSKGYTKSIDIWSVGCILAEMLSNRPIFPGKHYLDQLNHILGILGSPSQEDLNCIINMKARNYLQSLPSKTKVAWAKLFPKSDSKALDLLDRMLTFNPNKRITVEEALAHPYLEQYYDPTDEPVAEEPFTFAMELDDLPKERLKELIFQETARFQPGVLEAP
# Protocol: as §1
# as §2, with “MAPK1” for “ALK4”, “25” for “8”, “Tris” for “MOPS”, “7.5, 0.02” for “7.0, 0.2”, “EGTA, 250 μM peptide,” for “EDTA, 2 mg/ml casein,”
# PKCα(h) = PKCα(h) (Homo sapiens, UniProt P17252); conditions: read-out: percent residual activity of PKCα(h)
# Protocol: as §1
# as §3, with “PKCα” for “Fer”, “20” for “8”, “HEPES” for “MOPS”, “7.4, 0.03% Triton X-100, […], 0.1 mg/ml phosphatidylserine, 10 μg/ml diacylglycerol, 0.1 mg/ml histone H1,” for “7.0, 0.2 mM EDTA, 1 mM MnCl2, 250 μM KKKSPGEYVNIEFG (SEQ ID NO:207),”
# ROCK-II(r) = ROCK-II(r) (Rattus norvegicus, UniProt Q62868); conditions: read-out: percent residual activity of ROCK-II(r)
# ROCK-II(r), sequence (Q62868 whole entry): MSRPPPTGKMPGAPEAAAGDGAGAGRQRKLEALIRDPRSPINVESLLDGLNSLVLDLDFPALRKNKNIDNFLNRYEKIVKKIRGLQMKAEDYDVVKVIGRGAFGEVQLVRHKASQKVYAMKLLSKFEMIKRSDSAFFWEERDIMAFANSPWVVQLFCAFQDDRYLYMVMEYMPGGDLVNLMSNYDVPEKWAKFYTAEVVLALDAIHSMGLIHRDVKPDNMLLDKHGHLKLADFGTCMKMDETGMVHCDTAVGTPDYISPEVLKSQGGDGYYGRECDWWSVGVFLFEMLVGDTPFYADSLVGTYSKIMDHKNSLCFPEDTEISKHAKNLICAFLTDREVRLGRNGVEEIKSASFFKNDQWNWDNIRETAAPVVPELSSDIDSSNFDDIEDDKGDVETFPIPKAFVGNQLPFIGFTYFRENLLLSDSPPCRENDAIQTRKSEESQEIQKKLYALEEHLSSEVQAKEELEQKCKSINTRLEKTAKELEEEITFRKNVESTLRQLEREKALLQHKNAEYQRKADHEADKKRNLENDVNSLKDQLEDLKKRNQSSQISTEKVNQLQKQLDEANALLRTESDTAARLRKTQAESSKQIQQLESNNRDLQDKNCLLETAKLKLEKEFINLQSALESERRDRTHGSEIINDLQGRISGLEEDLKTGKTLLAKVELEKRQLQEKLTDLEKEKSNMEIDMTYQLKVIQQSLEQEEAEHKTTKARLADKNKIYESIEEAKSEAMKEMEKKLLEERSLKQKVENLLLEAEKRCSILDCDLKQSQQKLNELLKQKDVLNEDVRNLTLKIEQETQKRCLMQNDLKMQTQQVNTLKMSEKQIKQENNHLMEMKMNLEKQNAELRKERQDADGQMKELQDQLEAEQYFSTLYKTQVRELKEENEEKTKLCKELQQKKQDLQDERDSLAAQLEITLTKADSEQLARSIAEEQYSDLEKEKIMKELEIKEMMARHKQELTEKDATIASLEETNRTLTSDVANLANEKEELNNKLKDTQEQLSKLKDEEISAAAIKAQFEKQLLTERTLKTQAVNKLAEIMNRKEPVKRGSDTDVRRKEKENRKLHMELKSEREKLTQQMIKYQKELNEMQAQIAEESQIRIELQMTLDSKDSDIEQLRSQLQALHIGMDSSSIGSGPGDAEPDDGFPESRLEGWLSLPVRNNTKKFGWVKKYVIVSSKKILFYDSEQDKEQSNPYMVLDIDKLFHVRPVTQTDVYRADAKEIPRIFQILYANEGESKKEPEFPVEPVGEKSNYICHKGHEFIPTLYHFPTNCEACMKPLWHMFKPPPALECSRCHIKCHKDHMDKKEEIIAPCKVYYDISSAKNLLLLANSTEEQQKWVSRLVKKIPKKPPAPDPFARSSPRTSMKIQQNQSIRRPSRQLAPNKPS
# Protocol: as §1
# as §2, with “ROCK-II (r)” for “ALK4 (h)”, “50” for “8”, “Tris” for “MOPS”, “7.5, 0.1” for “7.0, 0.2”, “EGTA, 30 μM […] (SEQ ID NO:222),” for “EDTA, 2 mg/ml casein,”
# SAPK3(h) = SAPK3(h) (Homo sapiens, UniProt P53778); conditions: read-out: percent residual activity of SAPK3(h)
# SAPK3(h), sequence (P53778 whole entry): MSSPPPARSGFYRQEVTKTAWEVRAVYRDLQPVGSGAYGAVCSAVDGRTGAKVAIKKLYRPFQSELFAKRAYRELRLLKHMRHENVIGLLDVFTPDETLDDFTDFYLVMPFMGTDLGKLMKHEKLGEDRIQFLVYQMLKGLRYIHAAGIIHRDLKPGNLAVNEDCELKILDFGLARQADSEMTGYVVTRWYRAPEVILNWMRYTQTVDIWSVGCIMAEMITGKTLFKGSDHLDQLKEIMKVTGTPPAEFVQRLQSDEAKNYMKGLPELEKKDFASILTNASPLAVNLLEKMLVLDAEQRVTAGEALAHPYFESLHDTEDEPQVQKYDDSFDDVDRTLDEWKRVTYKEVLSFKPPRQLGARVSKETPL
# Protocol: as §1
# as §2, with “SAPK3” for “ALK4”, “25” for “8”, “Tris” for “MOPS”, “7.5, 0.02” for “7.0, 0.2”, “EGTA, 0.33” for “EDTA, 2”, “myelin basic protein,” for “casein,”
# ALK4(h), sequence (P36896 24-505): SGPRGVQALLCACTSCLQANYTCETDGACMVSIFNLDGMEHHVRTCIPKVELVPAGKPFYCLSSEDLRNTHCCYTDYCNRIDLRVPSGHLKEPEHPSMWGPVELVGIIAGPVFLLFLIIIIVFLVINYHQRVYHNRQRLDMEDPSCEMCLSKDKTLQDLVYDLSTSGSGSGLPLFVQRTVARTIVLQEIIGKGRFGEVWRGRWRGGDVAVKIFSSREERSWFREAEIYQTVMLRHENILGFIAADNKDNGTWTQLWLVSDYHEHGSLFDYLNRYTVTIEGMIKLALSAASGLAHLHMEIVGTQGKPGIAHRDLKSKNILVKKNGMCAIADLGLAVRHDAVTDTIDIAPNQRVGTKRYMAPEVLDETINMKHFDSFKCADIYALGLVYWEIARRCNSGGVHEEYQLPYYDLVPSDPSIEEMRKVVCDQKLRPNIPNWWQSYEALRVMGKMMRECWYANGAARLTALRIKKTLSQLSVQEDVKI
Compound,remaining activity at 2.5 µM (ALK4(h)),remaining activity at 2.5 µM (Fer(h)),remaining activity at 2.5 µM (MAPK1(h)),remaining activity at 2.5 µM (PKCα(h)),remaining activity at 2.5 µM (ROCK-II(r)),remaining activity at 2.5 µM (SAPK3(h))
CN1CCCC1CCNC(=O)c1cn2c3c(c(N4CCC(c5cnccn5)C4)c(F)cc3c1=O)Oc1cc3ccccc3cc1-2 (stereo not drawn) [Compound A-1],108%,84%,92%,90%,48%,85%
CC(=O)N1CCN(c2ccc3c(=O)c(C(=O)NCCN4CCCC4)c4n(C)c5ccccc5n4c3n2)CC1 [Compound B-1],103%,94%,94%,101%,103%,111%
